For the assay, the system named is circulating lymphocytes. In words: Lymphopenia assay: circulating lymphocytes after oral gavage. It is filed as in vivo. To be noted: C57bl/6 male mice, oral gavage 0.5 and 5 mg/kg in 30% HPCD, blood 5 and 24 hours after administration; for ED50: Mus musculus, Lymphocyte, po. The procedure: Measurement of circulating lymphocytes: Compounds were dissolved in 30% HPCD. Mice (C57bl/6 male, 6-10 week-old) were administered 0.5 and 5 mg/kg of a compound via oral gavage. 30% HPCD was included as a negative control.
Blood was collected from the retro-orbital sinus 5 and 24 hours after drug administration under short isoflurane anesthesia. Whole blood samples were subjected to hematology analysis. Peripheral lymphocyte counts were determined using an automated analyzer (HEMAVET™ 3700). Three mice were used to assess the lymphocyte depletion activity of each compound screened.
Compounds of formula (I) induced full lymphopenia at times as short as 3 hours or less to as long as 48 hours or more; for example, 4 to 36 hours, or 5 to 24 hours. In some cases, a compound of formula induced full lymphopenia at 5 hours and partial lymphopenia at 24 hours. The dosage required to induce lymphopenia can be in the range of, e.g., 0.001 mg/kg to 100 mg/kg; or 0.01 mg/kg to 10 mg/kg. The dosage can be 10 mg/kg or less, such as 5 mg/kg or less, 1 mg/kg or less, or 0.1 mg/kg or less

On to `C[C@](N)(CO)c1ccc2cc(O[C@H]3C[C@H](COCc4ccccc4)C3)ccc2c1` (relative stereo) [Example 76], for which the “Lymphopenia (ED50 mg/kg)” value was 0.5 to 5 mg/kg.
On the same count and under the same terms, next, `C[C@](N)(CO)c1ccc2cc(O[C@H]3C[C@@H](COCc4ccccc4)C3)ccc2c1` (relative stereo) [Example 77]: less than 0.5 mg/kg; `CCC(C)(C)[C@H]1CC[C@H](Oc2ccc3cc([C@@](C)(N)CO)ccc3c2)CC1` (relative stereo) [Example 78, (R)-2-Amino-2-[6-(4-trans-tert-pentylcyclohexyloxy)naphthalen-2-yl]propan-1-ol]: 0.5 to 5 mg/kg; `CCC(C)(C)[C@H]1CC[C@@H](Oc2ccc3cc([C@@](C)(N)CO)ccc3c2)CC1` (relative stereo) [Example 79, (R)-2-Amino-2-[6-(4-cis-tert-pentylcyclohexyloxy)naphthalen-2-yl]propan-1-ol]: greater than 5 mg/kg.
Same read-out and setting: under `C[C@](N)(CO)c1ccc2c(C(F)(F)F)c(O[C@H]3C[C@H](COCc4ccccc4)C3)ccc2c1` (relative stereo) [Example 82] stands less than 0.5 mg/kg; under `CC(C)(C)[C@H]1CC[C@H](Oc2ccc3cc([C@](C)(N)CO)ccc3c2C(F)(F)F)CC1` (relative stereo) [Example 124, (S)-2-amino-2-[6-(4-trans-tert-butyl-cyclohexyloxy)-5-trifluoromethyl-naphthalen-2-yl]-propan-1-ol], greater than 5 mg/kg; under `CC(C)(C)[C@H]1CC[C@@H](Oc2ccc3cc([C@](C)(N)CO)ccc3c2C(F)(F)F)CC1` (relative stereo) [Example 128, (S)-2-amino-2-[6-(4-cis-tert-butyl-cyclohexyloxy)-5-trifluoromethyl-naphthalen-2-yl]-propan-1-ol], 0.5 to 5 mg/kg.
`CC(CO)c1ccc2c(C(F)(F)F)c(O[C@H]3CC[C@H](C(C)(C)C)CC3)ccc2c1` (relative stereo) [Example 275, 2-[6-(trans-4-tert-Butyl-cyclohexyloxy)-5-trifluoromethyl-naphthalen-2-yl]-propan-1-ol]: the ED50 (in general, the dose at which the effect has come halfway, by size or by number of responders) is greater than 5 mg/kg.
Consider `CC(N)(CO)c1ccc2c(C(F)(F)F)c(O[C@H]3CC[C@H](C(C)(C)C)CC3)ccc2c1` (relative stereo) [Example 276, 2-Amino-2-[6-(trans-4-tert-butyl-cyclohexyloxy)-5-trifluoromethyl-naphthalen-2-yl]-propan-1-ol], for which the 50% effective dose (ED50) was less than 0.5 mg/kg.
The compound `CCCC[C@H]1CC[C@@H](Oc2ccc3cc([C@@](C)(N)CO)ccc3c2)CC1` [Example 6, (R)-2-amino-2-(6-(cis-4-butylcyclohexyloxy)naphthalen-2-yl)propan-1-ol] came in with an ED50 of 0.75 mg/kg.
For the compound `CCCCC1CCC(Oc2ccc3cc([C@@](C)(N)CO)ccc3c2)CC1` (stereo partly drawn) [Example 7, (R)-2-amino-2-(6-(4-butylcyclohexyloxy)naphthalen-2-yl)propan-1-ol], the 50% effective dose (ED50) was less than 0.5 mg/kg.
On the same count and under the same terms, under `CCCC[C@H]1CC[C@H](Oc2ccc3cc([C@@](C)(N)CO)ccc3c2)CC1` [Example 8, (R)-2-amino-2-(6-(trans-4-butylcyclohexyloxy)naphthalen-2-yl)propan-1-ol] stands less than 0.5 mg/kg.
`CCCC[C@H]1CC[C@@H](Oc2ccc3cc(C(N)(CO)CO)ccc3c2)CC1` [Example 14, 2-amino-2-(6-(cis-4-butylcyclohexyloxy)naphthalen-2-yl)propane-1,3-diol] yielded an ED50 greater than 5 mg/kg.
Still for that read-out and setting: under `CCCC[C@H]1CC[C@@H](Oc2ccc3cc([C@@](C)(N)CO)ccc3c2C(F)(F)F)CC1` [Example 17, (R)-2-amino-2-(6-(cis-4-butylcyclohexyloxy)-5-(trifluoromethyl)naphthalen-2-yl)propan-1-ol] stands 0.07 mg/kg.
Take `CC(C)(C)[C@H]1CC[C@H](Oc2ccc3cc([C@@](C)(N)CO)ccc3c2)CC1` [Example 25, (R)-2-amino-2-(6-(trans-4-tert-butylcyclohexyloxy)naphthalen-2-yl)propan-1-ol]: the “Lymphopenia (ED50 mg/kg)” value is listed as greater than 5 mg/kg.
Compound `C[C@](N)(CO)c1ccc2cc(O[C@H]3CC[C@@H](c4ccccc4)CC3)ccc2c1` [Example 30, (R)-2-amino-2-(6-(cis-4-phenylcyclohexyloxy)naphthalen-2-yl)propan-1-ol] came in with a median effective dose (ED50) of 0.5 to 5 mg/kg.
`CC1(C)CCC(Oc2ccc3cc([C@@](C)(N)CO)ccc3c2)CC1` [Example 47, (R)-2-amino-2-(6-(4,4-dimethylcyclohexyloxy)naphthalen-2-yl)propan-1-ol]: the 50% effective dose (ED50) is greater than 5 mg/kg.
For the compound `CC(C)(C)[C@H]1CC[C@H](Oc2ccc3cc([C@@](C)(N)CO)ccc3c2)CC1` [Example 49, (R)-2-amino-2-(6-(trans-4-tert-butylcyclohexyloxy)naphthalen-2-yl)propan-1-ol], the “Lymphopenia (ED50 mg/kg)” value was found to be 0.4 mg/kg.
Same read-out and setting: under `Cl.NC(CO)(CO)c1ccc2cc(O[C@H]3C[C@H](COCc4ccccc4)C3)ccc2c1` [Example 65] stands less than 0.5 mg/kg.
Still for that read-out and setting: under `Cl.NC(CO)(CO)c1ccc2cc(O[C@H]3C[C@@H](COCc4ccccc4)C3)ccc2c1` [Example 66] stands less than 0.5 mg/kg; under `NC(CO)(CO)c1ccc2c(C(F)(F)F)c(O[C@H]3C[C@H](COCc4ccccc4)C3)ccc2c1` [Example 73], less than 0.5 mg/kg; under `NC(CO)(CO)c1ccc2c(C(F)(F)F)c(O[C@H]3C[C@@H](COCc4ccccc4)C3)ccc2c1` [Example 74], less than 0.5 mg/kg.
On to `C[C@](N)(CO)c1ccc2cc(OC3CCC4CCCCC4C3)ccc2c1` (stereo partly drawn) [Example 87, (R)-2-Amino-2-[6-(decahydro-naphthalen-2-yloxy)-naphthalen-2-yl]-propan-1-ol], for which the median effective dose (ED50) was 0.5 to 5 mg/kg.
The same measure, in the same setting: next, `C[C@](N)(CO)c1ccc2cc(OC3CCC(C4CCCCC4)CC3)ccc2c1` (stereo partly drawn) [Example 89, (R)-2-Amino-2-[6-(bicyclohexyl-4-yloxy)-naphthalen-2-yl]-propan-1-ol]: 0.5 to 5 mg/kg; `CC(C)C1CCC(Oc2ccc3cc([C@@](C)(N)CO)ccc3c2)CC1` (stereo partly drawn) [Example 91, (R)-2-Amino-2-[6-(4-isopropyl-cyclohexyloxy)-naphthalen-2-yl]-propan-1-ol]: 0.5 to 5 mg/kg.
The same measure, in the same setting: under `C[C@](N)(CO)c1ccc2cc(OC3CCC(C4CCCC4)CC3)ccc2c1` (stereo partly drawn) [Example 94, (R)-2-Amino-2-[6-(4-cyclopentyl-cyclohexyloxy)-naphthalen-2-yl]-propan-1-ol] stands 0.5 to 5 mg/kg.
On to `CCC(C)C1CCC(Oc2ccc3cc([C@@](C)(N)CO)ccc3c2)CC1` (stereo partly drawn) [Example 97, (R)-2-Amino-2-[6-(4-sec-butyl-cyclohexyloxy)-naphthalen-2-yl]-propan-1-ol], for which the ED50 lay in the range of 0.5 to 5 mg/kg.
For `C[C@](N)(CO)c1ccc2c(C(F)(F)F)c(O[C@H]3CC[C@@H](C4CCCC4)CC3)ccc2c1` [Example 100, (R)-2-Amino-2-[6-(cis-4-cyclopentyl-cyclohexyloxy)-5-trifluoromethyl-naphthalen-2-yl]-propan-1-ol], the ED50 is greater than 5 mg/kg.
The same measure, in the same setting: under `C[C@](N)(CO)c1ccc2c(C(F)(F)F)c(O[C@H]3CC[C@H](C4CCCC4)CC3)ccc2c1` [Example 103, (R)-2-Amino-2-[6-(trans-4-cyclopentyl-cyclohexyloxy)-5-trifluoromethyl-naphthalen-2-yl]-propan-1-ol] stands greater than 5 mg/kg.

The values are drawn from US8269043B2, “Bicyclic aryl sphingosine 1-phosphate analogs” (Biogen Idec MA Inc., priority 2008, dated 2012).
